US20220089568A1 (Janssen Biotech, Inc., priority 2019, published 2022)

Legend:
[1] = test system: MOLM-13 cells; experiment: MOLM-13 Cellular Assay; type: cell-based; conditions: Homo sapiens, 72 hours exposure, cell viability by CellTiter-Glo
Experimental: The day prior to assay set-up, cells were pelleted, resuspended in fresh media, counted, and cells were plated at 0.4×10^6 cell/mL in a T150 flask. […] Cells were exposed to different concentrations of test compounds at 37° C., 5% CO2 for 72 hours immediately after seeding.

[2] = biological target: T1, human DHODH (Homo sapiens, UniProt Q02127); experiment: DHODH Enzymatic Assay; type: biochemical; conditions: purified human DHODH; DCIP absorbance, end-point mode
T1 construct: purchased Proteros PR-0044
T1 sequence (Q02127 whole entry): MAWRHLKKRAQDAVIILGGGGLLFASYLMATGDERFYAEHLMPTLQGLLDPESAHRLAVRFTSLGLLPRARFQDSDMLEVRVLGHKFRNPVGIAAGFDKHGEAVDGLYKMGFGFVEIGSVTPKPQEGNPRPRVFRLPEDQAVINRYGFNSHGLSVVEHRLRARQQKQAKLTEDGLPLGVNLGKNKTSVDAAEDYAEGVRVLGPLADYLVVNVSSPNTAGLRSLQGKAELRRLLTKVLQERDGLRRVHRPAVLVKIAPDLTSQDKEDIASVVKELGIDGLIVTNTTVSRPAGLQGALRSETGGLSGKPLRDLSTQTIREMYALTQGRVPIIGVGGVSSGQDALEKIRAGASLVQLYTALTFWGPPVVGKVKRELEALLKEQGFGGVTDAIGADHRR
Experimental: To detect DHODH enzyme activities, dichloroindophenol (DCIP) is added as the final electron acceptor in the assay. DCIP can accept electrons from the reduced coenzyme Q generated in the assay, or from dihydroorotate (DHO) via FMN by binding presumably to the ubiquinone pocket. […] The assay buffer contained […], pH 7.5, 150 mM NaCl, 0.5 mM EDTA, and 0.1% Triton X-100 in MilliQ water. Substrate consisting of 20 mM DHO, 5 mM CoQ6, and 1 mM DCIP in assay buffer, initiates the reaction. […] Absorbance measurements were obtained using the BMG Phera Star plate-reading spectrophotomer. Purified human DHODH was purchased from Proteros (cat. No. PR-0044). Chemicals were purchased from Sigma-Aldrich, Teknova, and Avanti Polar Lipids. Liquid handling was performed using Labcyte Echo and Formulatrix Tempest.

EC50 [1] [nM] | EC50 [2] [nM] | Structure (SMILES)
12.9 | 7.2 | CCn1c(CO)nn(-c2nc(O[C@@H](C)C(F)(F)F)c(C(=O)Nc3cn(C)nc3Cl)cc2F)c1=O [Example 80, N-(3-Chloro-1-methyl-pyrazol-4-yl)-6-[4-ethyl-3-(hydroxymethyl)-5-oxo-1,2,4-triazol-1-yl]-5-fluoro-2-[(1S)-2,2,2-trifluoro-1-methyl-ethoxy]pyridine-3-carboxamide]
0.38 | 0.975 | CCCn1c(CF)nn(-c2nc(O[C@@H](C)C(F)(F)F)c(C(=O)Nc3c(C)n[nH]c3Cl)cc2F)c1=O [Example 99, N-(5-Chloro-3-methyl-1H-pyrazol-4-yl)-5-fluoro-6-[3-(fluoromethyl)-5-oxo-4-propyl-1,2,4-triazol-1-yl]-2-[(1S)-2,2,2-trifluoro-1-methyl-ethoxy]pyridine-3-carboxamide]
13 | 1.7 | CCn1c(CO)nn(-c2nc(O[C@@H](C)C(F)(F)F)c(C(=O)Nc3cc(C#N)ccc3Cl)cc2F)c1=O [Example 74, (S)-N-(2-Chloro-5-cyanophenyl)-6-(4-ethyl-3-(hydroxymethyl)-5-oxo-4,5-dihydro-1H-1,2,4-triazol-1-yl)-5-fluoro-2-((1,1,1-trifluoropropan-2-yl)oxy)nicotinamide]
10.1 | 10.8 | CCn1c(CO)nn(-c2nc(O[C@@H](C)C(F)(F)F)c(C(=O)Nc3ccnc(OC)c3Cl)cc2F)c1=O [Example 24, (S)-N-(3-Chloro-2-methoxypyridin-4-yl)-6-(4-ethyl-3-(hydroxymethyl)-5-oxo-4,5-dihydro-1H-1,2,4-triazol-1-yl)-5-fluoro-2-((1,1,1-trifluoropropan-2-yl)oxy)nicotinamide]
1.14 | 0.448 | CCn1c(CF)nn(-c2nc(O[C@@H](C)C(F)(F)F)c(C(=O)Nc3c(C)ccnc3Cl)cc2F)c1=O [Example 87, N-(2-Chloro-4-methyl-3-pyridyl)-6-[4-ethyl-3-(fluoromethyl)-5-oxo-1,2,4-triazol-1-yl]-5-fluoro-2-[(1S)-2,2,2-trifluoro-1-methyl-ethoxy]pyridine-3-carboxamide]
0.792 | 2.9 | CCn1c(CO)nn(-c2nc(O[C@@H](C)C(F)(F)F)c(C(=O)Nc3c(C)cc(OC)nc3Cl)cc2F)c1=O [Example 106, N-(2-Chloro-6-methoxy-4-methyl-3-pyridyl)-6-[4-ethyl-3-(hydroxymethyl)-5-oxo-1,2,4-triazol-1-yl]-5-fluoro-2-[(1S)-2,2,2-trifluoro-1-methyl-ethoxy]pyridine-3-carboxamide]
> 1000 | 734 | CCn1c(CO)nn(-c2nc(O[C@@H](C)C(F)(F)F)c(C(=O)Nc3ccnnc3Cl)cc2F)c1=O [Example 16, (S)-N-(3-Chloropyridazin-4-yl)-6-(4-ethyl-3-(hydroxymethyl)-5-oxo-4,5-dihydro-1H-1,2,4-triazol-1-yl)-5-fluoro-2-((1,1,1-trifluoropropan-2-yl)oxy)nicotinamide]
1.48 | 2.25 | CCn1c(CO)nn(-c2nc(O[C@@H](C)C(F)(F)F)c(C(=O)Nc3c(OC)cccc3OC)cc2F)c1=O [Example 119, N-(2,6-Dimethoxyphenyl)-6-[4-ethyl-3-(hydroxymethyl)-5-oxo-1,2,4-triazol-1-yl]-5-fluoro-2-[(1S)-2,2,2-trifluoro-1-methyl-ethoxy]pyridine-3-carboxamide]
> 100 | 108 | CCn1c(CO)nn(-c2nc(O[C@@H](C)C(F)(F)F)c(C(=O)Nc3snc(C)c3Cl)cc2F)c1=O [Example 26, (S)-N-(4-Chloro-3-methylisothiazol-5-yl)-6-(4-ethyl-3-(hydroxymethyl)-5-oxo-4,5-dihydro-1H-1,2,4-triazol-1-yl)-5-fluoro-2-((1,1,1-trifluoropropan-2-yl)oxy)nicotinamide]
48 | > 33 | CCn1c(CO)nn(-c2nc(O[C@@H](C)C(F)(F)F)c(C(=O)Nc3c(OC)ncnc3OC)cc2F)c1=O [Example 94, N-(4,6-Dimethoxypyrimidin-5-yl)-6-[4-ethyl-3-(hydroxymethyl)-5-oxo-1,2,4-triazol-1-yl]-5-fluoro-2-[(1S)-2,2,2-trifluoro-1-methyl-ethoxy]pyridine-3-carboxamide]
4.6 | 3.4 | CCOc1ccnc(NC(=O)c2cc(F)c(-n3nc(CO)n(CC)c3=O)nc2O[C@@H](C)C(F)(F)F)c1Cl [Example 105, N-(3-Chloro-4-ethoxy-2-pyridyl)-6-[4-ethyl-3-(hydroxymethyl)-5-oxo-1,2,4-triazol-1-yl]-5-fluoro-2-[(1S)-2,2,2-trifluoro-1-methyl-ethoxy]pyridine-3-carboxamide]
4.4 | 2.5 | CCn1c(CO)nn(-c2nc(O[C@@H](C)C(F)(F)F)c(C(=O)Nc3c(F)cncc3C#N)cc2F)c1=O [Example 29, (S)-N-(3-Cyano-5-fluoropyridin-4-yl)-6-(4-ethyl-3-(hydroxymethyl)-5-oxo-4,5-dihydro-1H-1,2,4-triazol-1-yl)-5-fluoro-2-((1,1,1-trifluoropropan-2-yl)oxy)nicotinamide]
0.673 | 0.611 | CCn1c(CO)nn(-c2nc(O[C@@H](C)C(F)(F)F)c(C(=O)Nc3c(Cl)ccnc3Cl)cc2F)c1=O [Example 69, (S)-N-(2,4-Dichloropyridin-3-yl)-6-(4-ethyl-3-(hydroxymethyl)-5-oxo-4,5-dihydro-1H-1,2,4-triazol-1-yl)-5-fluoro-2-((1,1,1-trifluoropropan-2-yl)oxy)nicotinamide]
0.2 | < 1.69 | CCn1c(COC)nn(-c2nc(O[C@@H](C)C(F)(F)F)c(C(=O)Nc3c(F)cccc3Cl)cc2F)c1=O [Example 14, (S)-N-(2-Chloro-6-fluorophenyl)-6-(4-ethyl-3-(methoxymethyl)-5-oxo-4,5-dihydro-1H-1,2,4-triazol-1-yl)-5-fluoro-2-((1,1,1-trifluoropropan-2-yl)oxy)nicotinamide]
8.5 | 2.7 | CCn1c(CO)nn(-c2nc(O[C@@H](C)C(F)(F)F)c(C(=O)Nc3c[nH]nc3C3CC3)cc2F)c1=O [Example 62, (S)-N-(3-Cyclopropyl-1H-pyrazol-4-yl)-6-(4-ethyl-3-(hydroxymethyl)-5-oxo-4,5-dihydro-1H-1,2,4-triazol-1-yl)-5-fluoro-2-((1,1,1-trifluoropropan-2-yl)oxy)nicotinamide]
4.7 | 2.3 | CCn1c(CO)nn(-c2nc(O[C@@H](C)C(F)(F)F)c(C(=O)Nc3c(F)cncc3Cl)cc2F)c1=O [Example 28, (S)-N-(3-Chloro-5-fluoropyridin-4-yl)-6-(4-ethyl-3-(hydroxymethyl)-5-oxo-4,5-dihydro-1H-1,2,4-triazol-1-yl)-5-fluoro-2-((1,1,1-trifluoropropan-2-yl)oxy)nicotinamide]
> 100 | 2390 | CCn1c(CO)nn(-c2nc(O[C@@H](C)C(F)(F)F)c(C(=O)Nc3c(C)ncnc3Cl)cc2F)c1=O [Example 38, (S)-N-(4-Chloro-6-methylpyrimidin-5-yl)-6-(4-ethyl-3-(hydroxymethyl)-5-oxo-4,5-dihydro-1H-1,2,4-triazol-1-yl)-5-fluoro-2-((1,1,1-trifluoropropan-2-yl)oxy)nicotinamide]
